Assays:
luciferase (Luc) mRNA [1] = assay: Luc expression in liver, lung, spleen and femur 6 hours after intravenous administration; type: in vivo; conditions: mice, 0.5 mpk; for Total Flux Liver / Total Flux Lung / Total Flux Spleen: intravenous
In short: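 LNP-formulated mRNA given IV to mice (n=3) at 0.5 mpk; at 6 h, bioluminescence imaged ex vivo 15 min after IP D-luciferin (15 mg/mL, 200 μL), organs imaged within 25 min. Values are total flux by region of interest.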

[2] = Lipid clearance: lipid level in mouse liver tissue (LC-MS/MS); type: in vivo; conditions: for % Dose Remaining in Liver 6 h: Table 3D, intravenous; for % Remaining dose at 6 h / % Remaining dose at 24 h: Table 3E, mouse liver
Experimental: Quantification of Lipid by LC-MS/MS: Liver samples were homogenized following addition of 19 eq. (w/v) of water (DF=20). Protein was precipitated and analyzed against calibration standards prepared in matching blank. Chromatographic separation and quantification was accomplished with a LC-MS/MS System. Samples were injected and separated via HPLC A triple-quadrupole MS/MS system operated in positive ion mode was used for signal detection.

[3] = Particle size and polydispersity index of nanoparticle compositions (Zetasizer Nano ZS); type: physicochemical
In short: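 Nanoparticle compositions are diluted in 1×PBS, then size and polydispersity index are read on a Zetasizer Nano ZS instrument.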

luciferase (Luc) mRNA [4] = assay: Luc expression, whole body bioluminescence after intravenous administration to mice; type: in vivo; conditions: for Lipid/MC3 AUC / AUC (p/s * h): Table 3D; for Lipid/MC3 AUC / AUC (p/s * h) / Novel lipid/MC3 ratio, 6 hr. timepoint, i.v. / 6 h BLI Lipid/MC3: intravenous; for AUC (p/s * h): Luc; for Novel lipid/MC3 ratio, 6 hr. timepoint, i.v.: luciferase, relative to MC3, Table 3G; for Total Flux 3 hours / Total Flux 6 hours / Total Flux 24 hours: mice, i.v., 0.5 mg/kg, Luc mRNA; for 6 h BLI Lipid/MC3: Table 3E
In short: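 Luc mRNA nanoparticle formulations given intravenously to mice (n=6) at 0.5 mg/kg; whole-body bioluminescence imaged at 3, 6 and 24 h. CD-1 mice received IP D-luciferin (200 μL of 15 mg/mL) 15 min before imaging; total flux quantified by region of interest.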

[5] = Encapsulation efficiency of RNA (QUANT-IT RIBOGREEN RNA assay); type: physicochemical; conditions: for % EE: Table 1D, for subcutaneous administration, # formulated with hEPO mRNA
In short: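 RiboGreen fluorescence (ex ~480, em ~520 nm) compared between intact samples and Triton X-100-lysed samples after 15 min at 37 °C in TE buffer, pH 7.5. Percent free RNA is the blank-corrected intact/disrupted ratio.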

[6] = Apparent (surface) pKa of the LNP formulation (TNS assay); type: physicochemical; conditions: for pKa: Table 1A
In short: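 LNP (0.04 mg/mL mRNA) mixed with TNS reagent in 21 buffers spanning about pH 3-12, in triplicate; fluorescence plotted against pH as sigmoidal curve. Apparent pKa taken as […] curve inflection point; validated in 1× PBS and 20 mM Tris w/8% sucrose.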

hEPO mRNA [7] = assay: hEPO expression after subcutaneous administration to mice; type: in vivo, female CD-1 mice; conditions: for hEPO expression Lipid/Compound 18 ratio, 6 hr. / hEPO expression Lipid/Compound 18 ratio, AUC: 0.5 mpk
Experimental: The effect of the lipids of the disclosure on protein expression upon subcutaneous administration was studied. Formulations containing lipids of the disclosure and an mRNA expressing luciferase or hEPO were administered subcutaneously to female CD-1 mice at 0.5 mpk. Expression levels were obtained via whole body luminescent imaging (BLI) at 3, 6 and 24 hours after injection and expression levels in liver, spleen and at the injection site were evaluated ex vivo after 24 hours. […] See also Tables 35 and 36, and FIGS. 19 and 27.
Table 36 summarizes the hEPO expression levels using various nanoparticle compositions of the disclosure as compared to the hEPO expression level using a formulation containing MC3 or Compound 18, following subcutaneous administration, as described above.

hEPO mRNA [8] = assay: hEPO expression after intravenous administration to rats; type: in vivo, rat; conditions: Table 19B
Experimental: The expression of hEPO and cytokine induction in rats intravenously administered a nanoparticle composition at a dose of 2.0 mpk was measured at 6 h.
(§1) The expression of hEPO in rats intravenously administered a nanoparticle composition at a dose of 0.2 mpk or 2.0 mpk was measured at 6 hours. Table 16 summarize the ratio of hEPO expression levels using various nanoparticle compositions as compared to the hEPO expression level using MC3 formulation and the lipid levels in the liver measured 48 hours after administration, as described above. Tables 17 and 18 summarize the lipid levels in the liver and spleen measured 48 hours after administration of Compounds 28, 33, 53, and 54. Liver and spleen levels represent the average values calculated for 3 rats in each group. As is shown in Tables 17 and 18, less than 10% of Compounds 28, 33, 53, and 54 remained in the liver after 48 hours, while greater than 60% of MC3 remained.
The expression of hEPO induced by intravenous administration to rats of nanoparticle compositions at various doses was measured at 2, 4, 6, 8, 24, and 48 hour time points. FIGS. 3-6 respectively summarize the hEPO expression measured upon intravenous administration of formulations including Compounds 26, 18, 25, and MC3 to rat at various doses. The lipid levels of Compound 26 in the liver after 48 hours were about 19%.
(§2) 005781 The expression of hEPO and lipid levels in the liver and spleen in rats intravenously administered a nanoparticle composition at a dose of 0.2 mpk was measured at various time points. Compounds 18 and 25 were selected for comparison with MC3. Lipids were formulated according to the standard MC3 formulation described above. Rats were administered intravenously a single 0.2 mpk dose and expression monitored at 0.25, 0.5, 1, 2, 4, 8, 24, and 48 hours after administration.
Blood collection and analysis for hEPO. Blood was collected from mice or rats via the tail vein and hEPO concentrations were determined using a hEPO ELISA assay.

[9] = Residual lipid levels in rat liver and spleen (UPLC-MS); type: in vivo; conditions: Table 19B, liver, 24 h
Experimental: At 48 h liver tissue was harvested for lipid quantification. To pre-weighed tissues, Milli-Q water was added (900 μL water per 100 mg tissue). Tissues were homogenized using an Omni probe homogenizer until uniform. 50 μL of samples and matrix calibration standards were aliquoted into a 96-well plate. 50 μL of blank matrix for matrix blanks and control blanks were aliquoted. 400 μL is spiking solution were manually added to all samples except matrix blanks. 400 μL of 50:50 ACN:IPA were manually added to matrix blanks. The plate was covered and the samples vortexed and centrifuged for 5 minutes at >3000 rpm. 200 μL of the samples were transferred into a clean 96-well plate for analysis. Samples were analyzed on a Waters Acquity UPLC using a Higgins Analytical Clipeus C8 column ([…], 30×2.1 mm) and a gradient of either 70-95% or 60-95% (Mobile Phase A: 5 mM ammonium formate in 50:50:1 H2O:MeOH:formic acid; Mobile Phase B: 5 mM ammonium formate in 100:1 MeOH:formic acid) over 1.3 min at 1.2 mL/min (column temperature 55° C.). Detection was based on electrospray ionization (ESI) in positive mode using a Sciex API5500 Mass Spectrometer.
as §1, §2

[10] = second column (head also says 6 h)
[11] = Table 1A, lipid:DSPC:cholesterol:PEG-DMG 50:10:38.5:1.5 mol %
[12] = Table 1D, for subcutaneous administration, # formulated with hEPO mRNA
[13] = Table 1B, formulated with hEPO mRNA

CCCCCCCCCC(=O)OCCCCCCCN(CCO)CCCCCCCC(=O)OC(CCCCCCCC)CCCCCCCC [Compound 96, 7-((8-(Heptadecan-9-yloxy)-8-oxooctyl)(2-hydroxyethyl)amino)heptyl decanoate]
Flux in the liver (luciferase (Luc) mRNA [1]; i.v., in words): highest | Total Flux Liver (luciferase (Luc) mRNA [1]): 1.56E+10 | Total Flux Lung (luciferase (Luc) mRNA [1]): 3.43E+07 | Total Flux Spleen (luciferase (Luc) mRNA [1]): 3.39E+08 | % Dose Remaining in Liver 6 h [2, 10]: <1% | % Dose Remaining in Liver 6 h [2]: <1% | PDI ([3]; Table 1A): 0.160 | Size (nm) [3, 11]: 120.5 nm | PDI [3, 12]: 0.14 | Size (nm) [3, 12]: 82.6 nm | Lipid/MC3 AUC (luciferase (Luc) mRNA [4]): 6.3 | AUC (p/s * h) (luciferase (Luc) mRNA [4]): 1.209E+012 p/s * h | Novel lipid/MC3 ratio, 6 hr. timepoint, i.v. (luciferase (Luc) mRNA [4]): 6.11 | Total Flux 3 hours (luciferase (Luc) mRNA [4]): 4.54E+10 | Total Flux 6 hours (luciferase (Luc) mRNA [4]): 1.05E+11 | Total Flux 24 hours (luciferase (Luc) mRNA [4]): 3.86E+09 | EE (%) ([5]; Table 1A): 79.04% | % EE [5]: 94.4% | pKa [6]: 6.600 | hEPO expression Lipid/Compound 18 ratio, 6 hr. (hEPO mRNA [7]): 1.98 | hEPO expression Lipid/Compound 18 ratio, AUC (hEPO mRNA [7]): 1.72

CCCCCCCCCC(=O)OCCCCCCCN(CCO)CCCCCCCOC(=O)C(CCCCCCCC)CCCCCCCC [Compound 151, 7-((7-(Decanoyloxy)heptyl)(2-hydroxyethyl)amino)heptyl 2-octyldecanoate]
Total Flux Liver (luciferase (Luc) mRNA [1]): 4.72E+09 | Total Flux Lung (luciferase (Luc) mRNA [1]): 9.20E+06 | Total Flux Spleen (luciferase (Luc) mRNA [1]): 9.27E+07 | % Dose Remaining in Liver 6 h [2, 10]: <1% | % Dose Remaining in Liver 6 h [2]: <1% | PDI ([3]; Table 1A): 0.140 | Size (nm) [3, 11]: 105.7 nm | PDI [3, 12]: 0.13 | Size (nm) [3, 12]: 77.6 nm | Lipid/MC3 AUC (luciferase (Luc) mRNA [4]): 3.7 | AUC (p/s * h) (luciferase (Luc) mRNA [4]): 7.010E+011 p/s * h | Novel lipid/MC3 ratio, 6 hr. timepoint, i.v. (luciferase (Luc) mRNA [4]): 3.29 | Total Flux 3 hours (luciferase (Luc) mRNA [4]): 5.63E+10 | Total Flux 6 hours (luciferase (Luc) mRNA [4]): 5.68E+10 | Total Flux 24 hours (luciferase (Luc) mRNA [4]): 2.23E+09 | EE (%) ([5]; Table 1A): 87.86% | % EE [5]: 95.4% | pKa [6]: 6.593 | Apparent pKa ([6]; Table 3G): 6.59 | hEPO expression Lipid/Compound 18 ratio, 6 hr. (hEPO mRNA [7]): 0.73 | hEPO expression Lipid/Compound 18 ratio, AUC (hEPO mRNA [7]): 0.71

CCCCCCCCCOC(=O)C(C)CCCCCCN(CCO)CCCCCCCC(=O)OC(CCCCCCCC)CCCCCCCC (stereo not drawn) [Compound 164, Nonyl 8-((8-(heptadecan-9-yloxy)-8-oxooctyl)(2-hydroxyethyl)amino)-2-methyloctanoate]
% Remaining dose at 6 h [2]: 39.0% | % Remaining dose at 24 h [2]: 26.2% | PDI ([3]; Table 1A): 0.13 | Size (nm) [3, 11]: 84.5 nm | PDI [3, 12]: 0.08 | Size (nm) [3, 12]: 75.7 nm | 6 h BLI Lipid/MC3 (luciferase (Luc) mRNA [4]): 1.24 | EE (%) ([5]; Table 1A): 91.2% | % EE [5]: 94.1% | pKa [6]: 6.39 | hEPO expression Lipid/Compound 18 ratio, 6 hr. (hEPO mRNA [7]): 0.50 | hEPO expression Lipid/Compound 18 ratio, AUC (hEPO mRNA [7]): 0.56

CCCCCCCCCC(=O)OC(C)CCCCCCN(CCO)CCCCCCCOC(=O)C(CCCCCCCC)CCCCCCCC (stereo not drawn) [Compound 165, 7-((7-(Decanoyloxy)octyl)(2-hydroxyethyl)amino)heptyl 2-octyldecanoate]
% Remaining dose at 6 h [2]: 29.1% | % Remaining dose at 24 h [2]: 12.7% | PDI ([3]; Table 1A): 0.14 | Size (nm) [3, 11]: 84.6 nm | PDI [3, 12]: 0.14 | Size (nm) [3, 12]: 74.3 nm | 6 h BLI Lipid/MC3 (luciferase (Luc) mRNA [4]): 2.12 | EE (%) ([5]; Table 1A): 92.9% | % EE [5]: 93.5% | pKa [6]: 6.50 | hEPO expression Lipid/Compound 18 ratio, 6 hr. (hEPO mRNA [7]): 0.63 | hEPO expression Lipid/Compound 18 ratio, AUC (hEPO mRNA [7]): 0.64

CCCCCCCCCOC(=O)CCCCCCCN(CCCCCCCC(=O)OC(CCCCCCCC)CCCCCCCC)CCCN/C(=N/S(C)(=O)=O)N(C)C [Compound 233, Heptadecan-9-yl (Z)-8-((3-(3,3-dimethyl-2-(methylsulfonyl)guanidino)propyl)(8-(nonyloxy)-8-oxooctyl)amino)octanoate]
AUC (hEPO) (hEPO mRNA [8]): 129000 pg·h/mL | Lipid/MC3 ([hEPO] ratio) (hEPO mRNA [8]; relative to MC3): 0.00664 | Lipid/MC3 AUC (hEPO mRNA [8]; relative to MC3): 0.01 | [hEPO] (hEPO mRNA [8]; species, dose and time not given): 9800 pg/mL | % dose remaining, liver, 24 h [9]: 0.07% | PDI ([3]; Table 1A): 0.11 | Size (nm) [3, 11]: 66.9 nm | PDI [3, 13]: 0.21 | Size (nm) [3, 13]: 93.7 nm | PDI [3, 12]: 0.13 | Size (nm) [3, 12]: 87.0 nm | EE (%) ([5]; Table 1A): 97.81% | EE (%) [5, 13]: 97.6% | % EE [5]: 97.5% | Novel lipid/MC3 expression ratio, 6 hr. time point, s.c. hEPO 0.5 mpk (hEPO mRNA [7]; relative to MC3): 0.03

— patent US12263248B2, “Compounds and compositions for intracellular delivery of therapeutic agents” (ModernaTX, Inc., priority 2018, dated 2025)
